Results: patent US9315534B2, “Radiologic agents for monitoring alzheimer's disease progression and Evaluating a Response to Therapy and processes for the preparation of such agents” (BOARD OF REGENTS OF THE UNIVERSITY OF NEBRASKA, priority 2007, dated 2016)

Columns and labels:
BChE [1] = target: T1, BChE (Mus musculus, UniProt Q03311)
Procedure: Biodistribution studies were also conducted on 3, another BChE-binding derivative, in AD mouse and in normal controls. This study of 3 was conducted in >12-months old AD mice and matching control mice. All mice received IV 10 μCi of 3. Mice were killed 48 hours later. Tissues were collected and their radioactive content determined in a γ counter. One-half of each brain was fixed. The radioactivity in the other half was counted in a γ counter.

BChE [2] = target: T1, BChE; details: IV 0.5 mCi, 48 hours
Procedure: FIG. 7 provides images of microautoradiography of brain sections of AD mouse treated with IV dose of 0.5 mCi 3. Mouse was killed 48 hours after the administration of 3. Counterstained H&E; 10×.
FIG. 8 provides a microautoradiography of brain sections of the matching control mouse also treated with IV doses of 0.5 mCi 3. Mouse was killed 48 hours after the administration of 3. Counterstained H&E; 10×.
FIG. 9 provides an image of a section of brain from control mouse treated with 3 48 hours before necropsy. 100×; H&E.
FIG. 10 provides images of brain sections from AD mouse 48 hours after IV dose of 0.5 mCi 3. […] FIG. 10D: Cross-section of a blood vessel containing red blood cells surrounded by silver grains corresponding to circulating 3.
FIG. 8 is the corresponding section of a brain from a matched control mouse treated in the same manner. […] Imperfections in focus are because brain sections and silver grains are in different planes, tissue section vs. emulsion.

AChE = AChE (Bos taurus, UniProt P23795); details: SDS-PAGE autoradiogram
Procedure: Lanes 1, 2: BChE-containing mouse serum incubated with 2a in (1) PBS+DMSO; (2) PBS+0.1% Triton X100+DMSO. Lanes 3-5: AChE-only containing bovine serum incubated with 2a in (3) DMSO; (4) PBS+DMSO; (5) PBS+0.1% Triton X-100+DMSO.

BChE [3] = target: T1, BChE; details: for activity in head of AD mouse, planar image: 1 hour after tail vein IV 0.5 mCi
Procedure: Two sets of preliminary biodistribution studies were conducted: (1) in normal athymic mice to determine general biodistribution and the brain uptake; and (2) in at least ˜7-14 months old APPswe mice (strain B6C3-Tg(APPswe,PSEN1dE9)85 Dbo/J; abbreviated as AD mice in the text below). JAX® GEMM® Strain wildtype mice from the colony were used as the control. B6C3-Tg(APPswe,PSEN1dE9) 85 Dbo/J is a double transgenic mice expressing chimeric mouse/human amyloid precursor protein(Mo/Hu APP695swe) and a mutant human presenilin 1(PS1-dE9) both directed to CNS neurons. Both mutations are associated with the early onset AD. Aβ plaques are produced in these mice in hippocampus and cortex by 9 months of age with the occasional deposits found in mice as young as 6 months of age (Jankowsky et al. (2004) Hum. Mol. Genet., 13:159-70; Garcia-Alloza et al. (2006) Neurobiol. Dis., 24:516-524). Planar imaging was done using a pinhole gamma camera. […] In both images mice are positioned with the dorsal surface of the mouse facing the pinhole collimator. […] There were 6 mice per each time point.

[4] = Solubility in water, buffers and physiologically appropriate solvents
[5] = Partition coefficient, shake-tube method, 1-octanol and water; type: physicochemical; details: 1-octanol/water; for Partition coefficient P avg (std dev): 19° C., 125I-labeled pure diastereomers
Description: In order to reach intracerebral targets, drugs developed for diagnosis of the AD must be able to cross two barriers separating the central nervous system (CNS) from the periphery (Hansch et al. (1987) J. Pharm. Sci., 76:663-87.), the blood-brain barrier and the blood-cerebrospinal fluid barrier. Therefore the preliminary evaluation of the new drugs included partition coefficients. CNS agents that are highly lipid soluble with the log octanol-water partition coefficient between 1 and 3 have the equilibration half-times that are proportional to brain solubility (Atkinson et al. (2002) Curr. Med. Chem., 2:229-40; Dutta et al. (1998) Br. J. Anaesth., 81:422-4; Buchwald et al. (1998) Curr. Med. Chem., 5:353-80). Only pure SP and RP diastereomers were used. Ten μCi of each ^125I-labeled compound was added to 3 mL of water, the mixture was vortexed and 1-mL aliquots were transferred into fresh tubes. To each tube 1 mL of 1-octanol was added and the mixtures were vigorously vortexed until a homogenous suspension formed. At this point, the organic and water layers were separated by centrifugation at 19° C. Aliquots of each phase were gently removed and counted in a gamma counter in a triplicate. Typically, each KP was calculated as an average of n≧18.

T1 sequence (Q03311 30-603): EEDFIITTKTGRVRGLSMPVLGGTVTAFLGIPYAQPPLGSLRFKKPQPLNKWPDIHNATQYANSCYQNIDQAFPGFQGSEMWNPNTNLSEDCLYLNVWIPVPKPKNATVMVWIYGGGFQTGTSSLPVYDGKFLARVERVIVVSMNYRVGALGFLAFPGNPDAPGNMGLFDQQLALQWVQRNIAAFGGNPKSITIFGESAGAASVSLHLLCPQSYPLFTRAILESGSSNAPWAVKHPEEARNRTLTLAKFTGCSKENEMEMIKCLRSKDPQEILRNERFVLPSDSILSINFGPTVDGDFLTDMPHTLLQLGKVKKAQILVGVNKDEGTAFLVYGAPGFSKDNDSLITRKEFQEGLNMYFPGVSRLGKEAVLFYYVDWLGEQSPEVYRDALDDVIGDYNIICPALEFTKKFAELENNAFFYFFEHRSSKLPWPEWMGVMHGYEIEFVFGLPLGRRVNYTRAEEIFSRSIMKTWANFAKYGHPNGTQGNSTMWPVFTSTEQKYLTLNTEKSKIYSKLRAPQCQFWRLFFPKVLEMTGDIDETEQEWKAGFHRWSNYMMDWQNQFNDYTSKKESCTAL
Chain of AChE (P23795 31-613): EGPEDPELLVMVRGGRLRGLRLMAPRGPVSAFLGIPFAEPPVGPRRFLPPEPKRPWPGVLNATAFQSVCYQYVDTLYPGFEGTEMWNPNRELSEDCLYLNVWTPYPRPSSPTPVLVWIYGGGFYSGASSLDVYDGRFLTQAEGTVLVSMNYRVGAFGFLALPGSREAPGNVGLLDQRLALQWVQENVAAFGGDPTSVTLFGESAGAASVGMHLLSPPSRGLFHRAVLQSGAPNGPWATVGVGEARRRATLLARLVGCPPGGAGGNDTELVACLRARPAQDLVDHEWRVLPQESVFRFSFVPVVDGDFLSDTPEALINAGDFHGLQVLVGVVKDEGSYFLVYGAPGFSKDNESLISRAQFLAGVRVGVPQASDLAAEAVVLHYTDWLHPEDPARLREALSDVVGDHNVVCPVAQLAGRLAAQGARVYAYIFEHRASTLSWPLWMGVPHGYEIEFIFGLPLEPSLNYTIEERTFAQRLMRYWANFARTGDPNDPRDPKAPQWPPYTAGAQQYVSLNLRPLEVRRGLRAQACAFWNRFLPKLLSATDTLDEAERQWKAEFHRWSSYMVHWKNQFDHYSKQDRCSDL

For `O=c1[nH]c(=O)n(C2CC(O)C(COP3(=O)OCc4ccccc4O3)O2)cc1[125I]` (mixture of isomers) [Compound 3], the “brain uptake AD mice compared to wildtype controls” value (BChE [1]; 48 hours after IV) was about 3 times, the “brain uptake in AD mice” value (BChE [1]; >12-months old AD mice, IV 10 μCi, 48 hours) was 0.085±0.008 % ID/g and the “brain uptake in matching wildtype controls” value (BChE [1]; control mice, IV 10 μCi, 48 hours) was 0.030±0.011 % ID/g. For the same compound, the “clusters of radioactivity in brain of AD mice” value (BChE [2]; AD mouse) was “large clusters of radioactivity” and the “clusters of radioactivity in brains of control mice” value (BChE [2]; control mouse) was “practically absent”.

With `CC(C)(C)c1cc(C(C)(C)C)c2c(c1F)COP(=O)(OCC1OC(n3cc([125I])c(=O)[nH]c3=O)CC1O)O2` (stereo not drawn) [Compound 2a] the “binding to bovine serum (AChE, no BChE)” value (AChE) was “complete absence”, the “activity in head of AD mouse, planar image” value (BChE [3]) was “accumulation of 2a in the head of the AD mouse” and the “percent injected dose per gram brain, 2a versus 2b” value (BChE [3]; AD mice, IV, all time points, 6 mice per time point) was “significantly higher”. The “solubility in buffers and other physiologically appropriate solvents” value [4] was “low”.

With `CC(C)(C)c1cc(C(C)(C)C)c2c(c1F)COP(=O)(OCC1OC(n3cc([125I])c(=O)[nH]c3=O)CC1O)O2` (stereo not drawn) [Compound 2b] the “activity in head of AD mouse, planar image” value (BChE [3]) was “only the background level of activity”.

With `O=c1[nH]c(=O)n(C2CC(O)C(COP3(=O)OCc4ccccc4O3)O2)cc1[125I]` (stereo not drawn) [Compound 3a] the “log P” value [5] was 0.623 and the “Partition coefficient P avg (std dev)” value [5] was 4.19 (0.12).

In the case of `O=c1[nH]c(=O)n(C2CC(O)C(COP3(=O)OCc4ccccc4O3)O2)cc1[125I]` (stereo not drawn) [Compound 3b], the “log P” value [5] is reported as 0.652 and the “Partition coefficient P avg (std dev)” value [5] is reported as 4.49 (0.25).

For `Cc1cccc2c1OP(=O)(OCC1OC(n3cc([125I])c(=O)[nH]c3=O)CC1O)OC2` (stereo not drawn) [Compound 4a], the “log P” value [5] was 0.857 and the “Partition coefficient P avg (std dev)” value [5] was 7.19 (0.37).

In the case of `Cc1cccc2c1OP(=O)(OCC1OC(n3cc([125I])c(=O)[nH]c3=O)CC1O)OC2` (stereo not drawn) [Compound 4b], the “log P” value [5] is reported as 0.846 and the “Partition coefficient P avg (std dev)” value [5] is reported as 7.02 (0.34).
